In patent publication US8822517B2, “Arylosulfonamides for the treatment of CNS diseases” (Adamed SP. Z O.O., priority 2010, dated 2014):

Key:
[1] = system: adrenergic α1 receptor; assay: Binding assay α1 (non-selective), [3H]prazosin, rat cerebral cortex; conditions: percent inhibition of control specific binding; compounds tested at 1×10^−6 M
Summary of the method: (§1)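 Compounds were screened at 1×10^−6 M, and bound radioactivity was measured by scintillation counting. Specific binding equals total binding minus nonspecific binding obtained with an excess of unlabelled ligand.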

[2] = target: T1, serotonine transporter (SERT) receptor (Homo sapiens, UniProt P31645); assay: Binding assay SERT (h), [3H]imipramine, CHO cells; conditions: read-out: SERT [%]
T1 construct: expressed in transfected cells; host or cells: CHO cells
Summary of the method: as §1

[3] = target: serotoninergic 5-HT7 receptor (Homo sapiens, UniProt P34969); assay: Binding assay 5-HT7 (h), [3H]LSD, CHO cells; parameters: expressed in transfected cells; host or cells: CHO cells; conditions: read-out: 5-HT7
Summary of the method: as §1

[4] = target: serotoninergic 5-HT6 receptor (Homo sapiens, UniProt P50406); assay: Binding assay 5-HT6 (h), [3H]LSD, CHO cells; parameters: expressed in transfected cells; host or cells: CHO cells; conditions: read-out: 5-HT6
Summary of the method: as §1

[5] = target: dopaminergic D2 receptor (Homo sapiens, UniProt P14416); assay: Binding assay D2S (h), [3H]methyl-spiperone, HEK-293 cells; parameters: expressed in transfected cells; host or cells: HEK-293 cells; conditions: read-out: D2 [%]
Summary of the method: as §1

[6] = target: serotoninergic 5-HT2A receptor (Homo sapiens, UniProt P28223); assay: Binding assay 5-HT2A (h), [3H]ketanserin, HEK-293 cells; parameters: expressed in transfected cells; host or cells: HEK-293 cells; conditions: read-out: 5-HT2A
Summary of the method: as §1

[7] = target: T2, serotoninergic 5-HT1A receptor (Homo sapiens, UniProt P08908); assay: Binding assay 5-HT1A (h), [3H]8-OH-DPAT, HEK-293 cells; parameters: expressed in transfected cells; host or cells: HEK-293 cells; conditions: read-out: 5-HT1A
T2 sequence (P08908 1-422): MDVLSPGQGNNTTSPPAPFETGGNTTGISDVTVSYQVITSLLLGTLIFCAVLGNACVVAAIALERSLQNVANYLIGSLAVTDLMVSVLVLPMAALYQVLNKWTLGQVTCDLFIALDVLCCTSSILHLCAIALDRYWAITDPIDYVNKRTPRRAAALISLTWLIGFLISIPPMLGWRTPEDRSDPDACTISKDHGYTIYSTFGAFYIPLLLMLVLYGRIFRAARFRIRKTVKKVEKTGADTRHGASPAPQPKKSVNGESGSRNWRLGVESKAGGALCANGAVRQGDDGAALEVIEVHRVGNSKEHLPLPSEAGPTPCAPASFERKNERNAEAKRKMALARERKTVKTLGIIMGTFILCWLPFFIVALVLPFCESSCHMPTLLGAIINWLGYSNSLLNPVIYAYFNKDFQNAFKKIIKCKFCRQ
Summary of the method: as §1

[8] = target: dopaminergic D3 receptor (Homo sapiens, UniProt P35462); assay: Binding assay D3 (h), [3H]methyl-spiperone, CHO cells; parameters: expressed in transfected cells; host or cells: CHO cells; conditions: read-out: D3 [%]
Summary of the method: as §1

T1 sequence (P31645 whole entry): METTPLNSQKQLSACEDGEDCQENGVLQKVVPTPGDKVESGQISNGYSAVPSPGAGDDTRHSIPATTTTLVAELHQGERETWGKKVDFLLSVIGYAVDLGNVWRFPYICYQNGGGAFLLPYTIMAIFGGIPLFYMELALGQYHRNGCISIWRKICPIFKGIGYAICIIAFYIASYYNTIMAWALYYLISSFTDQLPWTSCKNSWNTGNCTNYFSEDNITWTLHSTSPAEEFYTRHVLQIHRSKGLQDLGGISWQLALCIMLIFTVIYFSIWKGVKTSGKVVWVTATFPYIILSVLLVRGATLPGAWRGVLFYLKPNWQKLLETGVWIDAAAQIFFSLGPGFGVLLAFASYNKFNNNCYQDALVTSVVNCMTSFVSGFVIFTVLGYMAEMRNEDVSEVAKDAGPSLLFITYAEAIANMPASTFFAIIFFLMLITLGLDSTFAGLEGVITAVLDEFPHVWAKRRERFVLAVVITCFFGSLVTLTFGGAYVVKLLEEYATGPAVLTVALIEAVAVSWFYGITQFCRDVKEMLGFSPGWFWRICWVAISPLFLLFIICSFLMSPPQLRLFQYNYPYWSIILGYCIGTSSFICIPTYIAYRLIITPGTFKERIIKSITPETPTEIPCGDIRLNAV
Chain of serotoninergic 5-HT6 receptor (P50406 whole entry): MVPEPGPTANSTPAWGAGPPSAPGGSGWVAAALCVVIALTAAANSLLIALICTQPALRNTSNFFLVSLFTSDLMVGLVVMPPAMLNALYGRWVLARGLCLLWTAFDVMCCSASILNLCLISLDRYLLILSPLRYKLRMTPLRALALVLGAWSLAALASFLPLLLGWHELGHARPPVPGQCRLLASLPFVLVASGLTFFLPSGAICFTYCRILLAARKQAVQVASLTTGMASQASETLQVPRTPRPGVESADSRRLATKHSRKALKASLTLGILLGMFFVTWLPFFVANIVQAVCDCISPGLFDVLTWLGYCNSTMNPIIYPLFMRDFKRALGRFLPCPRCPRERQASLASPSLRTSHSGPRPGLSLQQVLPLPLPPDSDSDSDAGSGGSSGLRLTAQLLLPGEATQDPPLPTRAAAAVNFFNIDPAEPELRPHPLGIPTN
Chain of serotoninergic 5-HT2A receptor (P28223 whole entry): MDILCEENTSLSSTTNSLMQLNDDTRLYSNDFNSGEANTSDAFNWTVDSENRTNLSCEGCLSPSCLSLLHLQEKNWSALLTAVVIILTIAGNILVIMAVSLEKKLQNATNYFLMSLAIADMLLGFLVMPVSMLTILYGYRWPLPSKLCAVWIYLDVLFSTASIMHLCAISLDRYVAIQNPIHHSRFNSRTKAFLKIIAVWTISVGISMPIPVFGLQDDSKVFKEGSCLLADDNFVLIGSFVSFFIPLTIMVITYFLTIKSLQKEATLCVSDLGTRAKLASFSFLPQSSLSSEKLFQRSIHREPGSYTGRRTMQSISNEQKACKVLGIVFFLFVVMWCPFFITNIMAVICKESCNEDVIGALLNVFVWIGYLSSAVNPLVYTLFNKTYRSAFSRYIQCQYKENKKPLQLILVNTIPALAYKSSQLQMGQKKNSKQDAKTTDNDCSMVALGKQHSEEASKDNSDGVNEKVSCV
Chain of dopaminergic D3 receptor (P35462 whole entry): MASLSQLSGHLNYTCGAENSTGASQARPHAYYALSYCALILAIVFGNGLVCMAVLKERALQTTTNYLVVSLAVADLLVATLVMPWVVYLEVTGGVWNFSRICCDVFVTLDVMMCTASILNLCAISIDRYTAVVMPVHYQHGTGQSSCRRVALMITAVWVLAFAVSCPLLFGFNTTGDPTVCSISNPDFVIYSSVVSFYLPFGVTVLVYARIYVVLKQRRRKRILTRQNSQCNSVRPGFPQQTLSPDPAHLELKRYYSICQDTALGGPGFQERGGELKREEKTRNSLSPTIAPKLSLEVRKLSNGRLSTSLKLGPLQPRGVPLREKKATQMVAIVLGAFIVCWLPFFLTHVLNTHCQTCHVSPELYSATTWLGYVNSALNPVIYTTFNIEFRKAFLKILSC
Chain of serotoninergic 5-HT7 receptor (P34969 whole entry): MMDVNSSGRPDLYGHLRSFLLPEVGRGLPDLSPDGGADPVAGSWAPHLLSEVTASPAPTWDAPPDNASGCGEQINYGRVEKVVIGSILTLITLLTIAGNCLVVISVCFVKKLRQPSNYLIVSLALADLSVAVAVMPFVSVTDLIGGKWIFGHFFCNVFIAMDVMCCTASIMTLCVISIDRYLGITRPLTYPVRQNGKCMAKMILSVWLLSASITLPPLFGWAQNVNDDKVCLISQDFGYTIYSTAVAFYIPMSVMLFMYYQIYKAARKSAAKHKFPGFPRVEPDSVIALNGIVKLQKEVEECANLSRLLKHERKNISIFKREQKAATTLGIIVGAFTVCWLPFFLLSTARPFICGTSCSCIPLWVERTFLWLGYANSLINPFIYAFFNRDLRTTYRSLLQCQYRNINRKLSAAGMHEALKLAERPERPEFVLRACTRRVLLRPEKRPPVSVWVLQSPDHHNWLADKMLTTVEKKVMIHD
Chain of dopaminergic D2 receptor (P14416 1-414 isoform P14416-2): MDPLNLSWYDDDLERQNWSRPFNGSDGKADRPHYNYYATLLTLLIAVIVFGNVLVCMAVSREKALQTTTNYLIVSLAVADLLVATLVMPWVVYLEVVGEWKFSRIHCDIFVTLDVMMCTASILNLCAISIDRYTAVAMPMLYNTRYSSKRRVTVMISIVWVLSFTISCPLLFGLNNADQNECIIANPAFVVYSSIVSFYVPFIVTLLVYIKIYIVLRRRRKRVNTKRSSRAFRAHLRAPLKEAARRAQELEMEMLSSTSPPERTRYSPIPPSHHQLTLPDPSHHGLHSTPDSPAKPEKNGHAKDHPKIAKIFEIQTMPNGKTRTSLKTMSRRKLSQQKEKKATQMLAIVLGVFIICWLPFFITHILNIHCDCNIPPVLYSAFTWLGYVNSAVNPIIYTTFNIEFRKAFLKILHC

O=S(=O)(NCCCN1CCN(c2nsc3ccccc23)CC1)c1cc2ccc(Cl)cc2s1 [Compound 264, N-[3-[4-(1,2-Benzothiazol-3-yl)piperazin-1-yl]propyl]-6-chlorobenzothiophene-2-sulphonamide]
α1 [%] [1]: 53% | inhibition at 1 µM [2]: -18% | inhibition at 1 µM [3]: 75% | inhibition at 1 µM [4]: 63% | inhibition at 1 µM [5]: 87% | inhibition at 1 µM [6]: 105% | inhibition at 1 µM [7]: 54% | inhibition at 1 µM [8]: 65%

O=S(=O)(NCCCN1CCN(c2nsc3ccccc23)CC1)c1c[nH]c2ncccc12 [Compound 270, N-[3-[4-(1,2-Benzothiazol-3-yl)piperazin-1-yl]propyl]-1H-pyrrolo[2,3-b]pyridine-3-sulphonamide]
α1 [%] [1]: 88% | inhibition at 1 µM [2]: 12% | inhibition at 1 µM [3]: 82% | inhibition at 1 µM [4]: 70% | inhibition at 1 µM [5]: 74% | inhibition at 1 µM [6]: 89% | inhibition at 1 µM [7]: 75% | inhibition at 1 µM [8]: 82%

O=S(=O)(NCCCCN1CCN(c2noc3ccccc23)CC1)c1ccc(Cl)cc1 [Compound 273, N-[4-[4-(1,2-Benzoxazol-3-yl)piperazin-1-yl]butyl]-4-chlorobenzenesulphonamide]
α1 [%] [1]: 101% | inhibition at 1 µM [2]: 22% | inhibition at 1 µM [3]: 97% | inhibition at 1 µM [4]: 74% | inhibition at 1 µM [5]: 88% | inhibition at 1 µM [6]: 95% | inhibition at 1 µM [7]: 46% | inhibition at 1 µM [8]: 85%

O=S(=O)(NCCCCN1CCN(c2noc3ccccc23)CC1)c1ccc(Br)cc1 [Compound 274, N-[4-[4-(1,2-Benzoxazol-3-yl)piperazin-1-yl]butyl]-4-bromobenzenesulphonamide]
α1 [%] [1]: 99% | inhibition at 1 µM [2]: 30% | inhibition at 1 µM [3]: 83% | inhibition at 1 µM [4]: 81% | inhibition at 1 µM [5]: 96% | inhibition at 1 µM [6]: 97% | inhibition at 1 µM [7]: 73% | inhibition at 1 µM [8]: 91%

O=S(=O)(NCCCCN1CCN(c2noc3ccccc23)CC1)c1ccc(F)c(Cl)c1 [Compound 276, N-[4-[4-(1,2-Benzoxazol-3-yl)piperazin-1-yl]butyl]-3-chloro-4-fluorobenzenesulphonamide]
α1 [%] [1]: 95% | inhibition at 1 µM [2]: 3% | inhibition at 1 µM [3]: 87% | inhibition at 1 µM [4]: 78% | inhibition at 1 µM [5]: 95% | inhibition at 1 µM [6]: 87% | inhibition at 1 µM [7]: 51% | inhibition at 1 µM [8]: 69%

N#Cc1cccc(S(=O)(=O)NCCCCN2CCN(c3noc4ccccc34)CC2)c1 [Compound 282, N-[4-[4-(1,2-Benzoxazol-3-yl)piperazin-1-yl]butyl]-3-cyanobenzenesulphonamide]
α1 [%] [1]: 102% | inhibition at 1 µM [2]: 12% | inhibition at 1 µM [3]: 98% | inhibition at 1 µM [4]: 64% | inhibition at 1 µM [5]: 97% | inhibition at 1 µM [6]: 78% | inhibition at 1 µM [7]: 50% | inhibition at 1 µM [8]: 87%

O=S(=O)(NCCCCN1CCN(c2noc3ccccc23)CC1)c1ccc2c(c1)CCO2 [Compound 289, N-[4-[4-(1,2-Benzoxazol-3-yl)piperazin-1-yl]butyl]-2,3-dihydrobenzofuran-5-sulphonamide]
α1 [%] [1]: 100% | inhibition at 1 µM [2]: 9% | inhibition at 1 µM [3]: 91% | inhibition at 1 µM [4]: 78% | inhibition at 1 µM [5]: 99% | inhibition at 1 µM [6]: 94% | inhibition at 1 µM [7]: 68% | inhibition at 1 µM [8]: 79%

O=S(=O)(NCCCCN1CCN(c2noc3ccccc23)CC1)c1ccc2cn[nH]c2c1 [Compound 291, N-[4-[4-(1,2-Benzoxazol-3-yl)piperazin-1-yl]butyl]-1H-indazole-6-sulphonamide]
α1 [%] [1]: 99% | inhibition at 1 µM [2]: 8% | inhibition at 1 µM [3]: 99% | inhibition at 1 µM [4]: 83% | inhibition at 1 µM [5]: 99% | inhibition at 1 µM [6]: 83% | inhibition at 1 µM [7]: 38% | inhibition at 1 µM [8]: 85%

O=S(=O)(NCCCCN1CCN(c2noc3ccccc23)CC1)c1cnc2ccccn12 [Compound 293, N-[4-[4-(1,2-Benzoxazol-3-yl)piperazin-1-yl]butyl]imidazo[1,2-a]pyridine-3-sulphonamide]
α1 [%] [1]: 98% | inhibition at 1 µM [2]: 3% | inhibition at 1 µM [3]: 93% | inhibition at 1 µM [4]: 44% | inhibition at 1 µM [5]: 85% | inhibition at 1 µM [6]: 89% | inhibition at 1 µM [7]: 57% | inhibition at 1 µM [8]: 65%

O=S(=O)(NCCCCN1CCC(c2noc3cc(F)ccc23)CC1)c1ccc(F)cc1 [Compound 294, 4-Fluoro-N-[4-[4-(6-fluoro-1,2-benzoxazol-3-yl)piperidin-1-yl]butyl]benzenesulphonamide]
α1 [%] [1]: 101% | inhibition at 1 µM [2]: -14% | inhibition at 1 µM [3]: 94% | inhibition at 1 µM [4]: 72% | inhibition at 1 µM [5]: 105% | inhibition at 1 µM [6]: 95% | inhibition at 1 µM [7]: 23% | inhibition at 1 µM [8]: 95%

O=S(=O)(NCCCCN1CCC(c2noc3cc(F)ccc23)CC1)c1ccc(Cl)cc1 [Compound 296, 4-Chloro-N-[4-[4-(6-fluoro-1,2-benzoxazol-3-yl)piperidin-1-yl]butyl]benzenesulphonamide]
α1 [%] [1]: 101% | inhibition at 1 µM [2]: 49% | inhibition at 1 µM [3]: 91% | inhibition at 1 µM [4]: 83% | inhibition at 1 µM [5]: 105% | inhibition at 1 µM [6]: 93% | inhibition at 1 µM [7]: 34% | inhibition at 1 µM [8]: 100%

O=S(=O)(NCCCCN1CCC(c2noc3cc(F)ccc23)CC1)c1ccc(Cl)c(Cl)c1 [Compound 297, 3,4-Dichloro-N-[4-[4-(6-fluoro-1,2-benzoxazol-3-yl)piperidin-1-yl]butyl]benzenesulphonamide]
α1 [%] [1]: 100% | inhibition at 1 µM [2]: 23% | inhibition at 1 µM [3]: 88% | inhibition at 1 µM [4]: 87% | inhibition at 1 µM [5]: 93% | inhibition at 1 µM [6]: 95% | inhibition at 1 µM [7]: 31% | inhibition at 1 µM [8]: 100%

O=S(=O)(NCCCCN1CCC(c2noc3cc(F)ccc23)CC1)c1ccc(F)c(Cl)c1 [Compound 299, 3-Chloro-4-fluoro-N-[4-[4-(6-fluoro-1,2-benzoxazol-3-yl)piperidin-1-yl]butyl]benzenesulphonamide]
α1 [%] [1]: 98% | inhibition at 1 µM [2]: 14% | inhibition at 1 µM [3]: 75% | inhibition at 1 µM [4]: 84% | inhibition at 1 µM [5]: 87% | inhibition at 1 µM [6]: 89% | inhibition at 1 µM [7]: 45% | inhibition at 1 µM [8]: 98%

O=S(=O)(NCCCCN1CCC(c2noc3cc(F)ccc23)CC1)c1ccc(C(F)(F)F)cc1 [Compound 302, N-[4-[4-(6-Fluoro-1,2-benzoxazol-3-yl)piperidin-1-yl]butyl]-4-(trifluoromethyl)benzenesulphonamide]
α1 [%] [1]: 100% | inhibition at 1 µM [2]: 19% | inhibition at 1 µM [3]: 101% | inhibition at 1 µM [4]: 72% | inhibition at 1 µM [5]: 90% | inhibition at 1 µM [6]: 95% | inhibition at 1 µM [7]: 50% | inhibition at 1 µM [8]: 99%

O=S(=O)(NCCCCN1CCC(c2noc3cc(F)ccc23)CC1)c1cccc(C(F)(F)F)c1 [Compound 303, N-[4-[4-(6-Fluoro-1,2-benzoxazol-3-yl)piperidin-1-yl]butyl]-3-(trifluoromethyl)-benzenesulphonamide]
α1 [%] [1]: 97% | inhibition at 1 µM [2]: 9% | inhibition at 1 µM [3]: 98% | inhibition at 1 µM [4]: 90% | inhibition at 1 µM [5]: 108% | inhibition at 1 µM [6]: 96% | inhibition at 1 µM [7]: 35% | inhibition at 1 µM [8]: 97%

O=S(=O)(NCCCCN1CCC(c2noc3cc(F)ccc23)CC1)c1ccc(OC(F)(F)F)cc1 [Compound 304, N-[4-[4-(6-Fluoro-1,2-benzoxazol-3-yl)piperidin-1-yl]butyl]-4-(trifluoromethoxy)-benzenesulphonamide]
α1 [%] [1]: 101% | inhibition at 1 µM [2]: 4% | inhibition at 1 µM [3]: 93% | inhibition at 1 µM [4]: 78% | inhibition at 1 µM [5]: 94% | inhibition at 1 µM [6]: 76% | inhibition at 1 µM [7]: 60% | inhibition at 1 µM [8]: 87%

N#Cc1ccc(S(=O)(=O)NCCCCN2CCC(c3noc4cc(F)ccc34)CC2)cc1 [Compound 305, 4-Cyano-N-[4-[4-(6-fluoro-1,2-benzoxazol-3-yl)piperidin-1-yl]butyl]benzenesulphonamide]
α1 [%] [1]: 99% | inhibition at 1 µM [2]: -18% | inhibition at 1 µM [3]: 85% | inhibition at 1 µM [4]: 78% | inhibition at 1 µM [5]: 88% | inhibition at 1 µM [6]: 96% | inhibition at 1 µM [7]: 58% | inhibition at 1 µM [8]: 103%
